Test [1] addresses T1, TBK1 (Homo sapiens, UniProt Q9UHD2).
T1 construct: His-tag; made in house; host or cells: Sf9 insect cells
T1 sequence (Q9UHD2 1-729): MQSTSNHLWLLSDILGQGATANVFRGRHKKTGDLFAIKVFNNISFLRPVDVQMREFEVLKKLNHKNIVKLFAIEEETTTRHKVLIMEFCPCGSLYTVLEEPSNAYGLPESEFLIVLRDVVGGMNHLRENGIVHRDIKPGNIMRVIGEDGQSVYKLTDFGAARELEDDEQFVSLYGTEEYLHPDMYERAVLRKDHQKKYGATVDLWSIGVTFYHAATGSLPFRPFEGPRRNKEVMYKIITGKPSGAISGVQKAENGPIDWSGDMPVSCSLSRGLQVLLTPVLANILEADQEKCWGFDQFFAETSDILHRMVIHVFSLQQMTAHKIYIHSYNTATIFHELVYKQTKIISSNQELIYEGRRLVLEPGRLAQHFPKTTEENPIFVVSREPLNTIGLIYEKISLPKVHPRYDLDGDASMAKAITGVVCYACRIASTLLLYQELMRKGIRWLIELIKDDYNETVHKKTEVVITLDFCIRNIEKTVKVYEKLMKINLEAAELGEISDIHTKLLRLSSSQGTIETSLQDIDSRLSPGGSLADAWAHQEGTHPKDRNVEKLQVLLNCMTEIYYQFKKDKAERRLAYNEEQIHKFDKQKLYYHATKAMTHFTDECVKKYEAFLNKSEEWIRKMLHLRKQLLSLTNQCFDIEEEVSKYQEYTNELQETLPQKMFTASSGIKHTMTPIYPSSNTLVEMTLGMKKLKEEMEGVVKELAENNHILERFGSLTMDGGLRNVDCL
The test can be described thus: In-vitro TBK1 kinase assay ([γ33]ATP filter-plate). It counts as biochemical. The essentials:
(§1)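 His-tagged Sf9-expressed kinases at 0.1 or 0.02 μg/ml (TBK1) and 0.1 or 0.015 μg/ml (IKKε) for normal and sensitized formats, with myelin basic protein or casein substrate. ATP was at 2×Km (60 μM TBK1, 32 μM IKKε) plus 0.3 μCi [γ33]ATP. Reactions ran 30-45 min, were captured on P-81 filters, and counts were normalized to DMSO.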

Test [2] deals with T2, IKKε (Homo sapiens, UniProt Q14164).
T2 construct: His-tag; made in house; host or cells: Sf9 insect cells
T2 sequence (Q14164 1-716): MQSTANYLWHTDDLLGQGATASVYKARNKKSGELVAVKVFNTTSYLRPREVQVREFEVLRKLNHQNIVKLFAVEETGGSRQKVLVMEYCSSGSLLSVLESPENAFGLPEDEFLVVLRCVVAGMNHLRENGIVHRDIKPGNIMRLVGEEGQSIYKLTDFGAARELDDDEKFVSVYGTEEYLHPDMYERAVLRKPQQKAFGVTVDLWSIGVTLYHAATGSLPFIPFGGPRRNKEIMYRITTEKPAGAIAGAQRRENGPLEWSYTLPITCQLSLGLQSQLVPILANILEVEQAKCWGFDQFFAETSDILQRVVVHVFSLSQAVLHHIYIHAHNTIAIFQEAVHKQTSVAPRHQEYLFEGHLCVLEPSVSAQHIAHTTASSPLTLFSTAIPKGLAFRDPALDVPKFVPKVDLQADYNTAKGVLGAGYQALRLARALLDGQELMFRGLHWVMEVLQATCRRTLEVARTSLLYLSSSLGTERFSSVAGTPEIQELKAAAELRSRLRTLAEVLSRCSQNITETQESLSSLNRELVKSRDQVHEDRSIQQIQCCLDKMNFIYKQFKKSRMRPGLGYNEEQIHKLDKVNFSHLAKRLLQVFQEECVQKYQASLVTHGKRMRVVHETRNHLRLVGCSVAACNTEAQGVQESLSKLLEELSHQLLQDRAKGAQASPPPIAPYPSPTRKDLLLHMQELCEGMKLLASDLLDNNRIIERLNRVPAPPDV
The test can be described thus: In-vitro IKKε kinase assay ([γ33]ATP filter-plate). It counts as biochemical. The essentials: as §1

In test [3] the test system is IKKε-mediated phosphorylation of IRF3. Briefly: In-situ phosphorylation of IRF3 (pIRF3 Ser396 ELISA) in HEK293T cells cotransfected with IRF3 and IKKε. It counts as cell-based. The conditions noted are these: Homo sapiens, HEK-293T. The essentials:
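For the IRF3 ELISA, HEK293T cells cotransfected with IRF3 and IKKε were replated at 20,000/well and treated 20 h. Phospho-Ser396 IRF3 was measured by ELISA and normalised to DMSO, with viability checked by CellTiter-Glo. For IRF7, cells transfected with IRF7 and TBK1 were treated overnight, and pSer477/Ser479 IRF7 was detected by Western blot.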

Where [4] appears, read: text bins, read-out: IC50 for inhibition of the kinase activity of TBK1.
Setting [5] is: text bins, read-out: IC50 for inhibition of the kinase activity of IKKε.
The mark [6] stands for this setting: HEK293T cells, 20 hours, text bins, read-out: IC50 for inhibition of the in-situ IKKε-mediated phosphorylation of IRF3.

Where two headings read alike, the source gives them in different places. Some results are limits rather than exact numbers.

For orientation: IC50 means the concentration that gives 50% inhibition. Take `COCCNCc1ccc(Nc2nccc(-c3ccc(OC4CCOCC4)c(C#N)c3)n2)cc1OC` [compound 478, 5-{2-[(3-Methoxy-4-{[(2-methoxyethyl)amino]methyl}phenyl)amino]pyrimidin-4-yl}-2-(tetrahydro-2H-pyran-4-yloxy)benzonitrile]: the IC50 in test [1] (setting [4]) was < 10 nM; in test [2] (setting [5]), < 5 nM; in test [3] (setting [6]), < 100 nM.
The like results for `N#Cc1cc(-c2ccnc(Nc3ccc(CN)cc3)n2)ccc1OC1CCOCC1` [compound 486, 5-(2-{[4-(aminomethyl)phenyl]amino}pyrimidin-4-yl)-2-(tetrahydro-2H-pyran-4-yloxy)benzonitrile] were, in that order, < 10 nM, < 5 nM and 250 to 500 nM.
For `COc1cc(Nc2nccc(-c3ccc(OC4CCOCC4)c(C#N)c3)n2)ccc1C(=O)N1CC(O)C1` [compound 485, 5-[2-({4-[(3-Hydroxyazetidinb-1-yl)carbonyl]-3-methoxyphenyl}amino)pyrimidin-4-yl]-2-(tetrahydro-2H-pyran-4-yloxy)benzonitrile], the IC50 in test [1] (setting [4]) is < 10 nM; in test [2] (setting [5]), < 5 nM; in test [3] (setting [6]), < 100 nM.
With `COc1cc(Nc2nccc(-c3ccc(OC4CCOCC4)c(C#N)c3)n2)ccc1OCCOCCNS(C)(=O)=O` [Example 22], the IC50 in test [1] (setting [4]) is < 10 nM; in test [2] (setting [5]) it was < 5 nM; in test [3] (setting [6]), < 100 nM.
With `COc1cc(Nc2nccc(-c3ccc(OC4CCOCC4)c(C#N)c3)n2)ccc1C(=O)NCCCN(C)C` [Example 103, 4-({4-[3-cyano-4-(tetrahydro-2H-pyran-4-yloxy)phenyl]pyrimidin-2-yl}amino)-N-[3-(dimethylamino)propyl]-2-methoxybenzamide], the IC50 in test [1] (setting [4]) was < 10 nM; in test [2] (setting [5]), < 5 nM; in test [3] (setting [6]) it was 250 to 500 nM.
Turning to `COc1ccc(Nc2nccc(-c3ccc(OC4CCOCC4)c(C#N)c3)n2)cc1OCCCN1CCN(C(=O)C(C)C)CC1` [compound 524, 5-{2-[(4-methoxy-3-{3-[4-(2-methylpropanoyl)piperazin-1-yl]propoxy}phenyl)amino]pyrimidin-4-yl}-2-(tetrahydro-2H-pyran-4-yloxy)benzonitrile], the IC50 in test [1] (setting [4]) is < 10 nM; in test [2] (setting [5]), < 5 nM; in test [3] (setting [6]), 100 to 250 nM.
For the compound `COc1cc(Nc2nccc(-c3ccc(OC4CCOCC4)c(C#N)c3)n2)cc(OC)c1OC` [Example 290, 2-(Tetrahydro-2H-pyran-4-yloxy)-5-{2-[(3,4,5-trimethoxyphenyl)amino]pyrimidin-4-yl}benzonitrile], the figures for the IC50 in test [1] (setting [4]), in test [2] (setting [5]) and in test [3] (setting [6]) were < 10 nM, < 5 nM and 250 to 500 nM, respectively.
For the compound `COc1cc(Nc2nccc(-c3ccc(OC4CCOCC4)c(C#N)c3)n2)ccc1CN1CC(N2CCOCC2)C1` [compound 481, 5-{2-[(3-Methoxy-4-{[3-(morpholin-4-yl)azetidin-1-yl]methyl}phenyl)amino]pyrimidin-4-yl}-2-(tetrahydro-2H-pyran-4-yloxy)benzonitrile], the IC50 in test [1] (setting [4]) was < 10 nM; in test [2] (setting [5]), < 5 nM; in test [3] (setting [6]), < 100 nM.
For `CN1CCN(C(=O)Nc2ccc(Nc3nccc(-c4ccc(OC5CCOCC5)c(C#N)c4)n3)cc2)CC1` [Example 20, N-[4-({4-[3-cyano-4-(tetrahydro-2H-pyran-4-yloxy)phenyl]pyrimidin-2-yl}amino)phenyl]-4-methylpiperazine-1-carboxamide], the IC50 in test [1] (setting [4]) is < 10 nM; in test [2] (setting [5]), < 5 nM; in test [3] (setting [6]), 250 to 500 nM.
The like results for `COc1ccc(Nc2nccc(-c3ccc(OC4CCOCC4)c(C#N)c3)n2)cc1OCCCN1CCN(C(C)C)CC1` [compound 523, 5-{2-[(4-methoxy-3-{3-[4-(propan-2-yl)piperazin-1-yl]propoxy}phenyl)amino]pyrimidin-4-yl}-2-(tetrahydro-2H-pyran-4-yloxy)benzonitrile] were, in that order, < 10 nM, < 5 nM and < 100 nM.
As for `C[C@H](O)C(=O)NCc1ccc(Nc2nccc(-c3ccc(OC4CCOCC4)c(C#N)c3)n2)cc1` [compound 494, (2S)-N-[4-({4-[3-cyano-4-(tetrahydro-2H-pyran-4-yloxy)phenyl]pyrimidin-2-yl}amino)benzyl]-2-hydroxypropanamide], the values for the IC50 in test [1] (setting [4]), in test [2] (setting [5]) and in test [3] (setting [6]) were < 10 nM, < 5 nM and 100 to 250 nM, respectively.
Consider `COc1cc(Nc2nccc(-c3ccc(OC4CCOCC4)c(C#N)c3)n2)ccc1C(=O)N1CCN2CCCC2C1` (stereo not drawn) [compound 501, 5-(2-{[4-(hexahydropyrrolo[1,2-a]pyrazin-2(1H)-ylcarbonyl)-3-methoxyphenyl]amino}pyrimidin-4-yl)-2-(tetrahydro-2H-pyran-4-yloxy)benzonitrile], for which the IC50 in test [1] (Table 3, read-out: TBK1 IC50) was 0.1 nM; in test [1] (setting [4]), < 10 nM; in test [2] (Table 3, read-out: IKKε IC50) it was 1.1 nM; in test [2] (setting [5]) it was < 5 nM; in test [3] (HEK293T cells in culture, Table 3, read-out: pIRF3 ELISA IC50) it was 25.9 nM; in test [3] (setting [6]) it was < 100 nM.
For the compound `COc1cc(Nc2nccc(-c3ccc(OC4CCN(C(=O)[C@H](C)O)CC4)c(C#N)c3)n2)ccc1N1CCOCC1` [Example 208, 2-({1-[(2S)-2-hydroxypropanoyl]piperidin-4-yl}oxy)-5-(2-{[3-methoxy-4-(morpholin-4-yl)phenyl]amino}pyrimidin-4-yl)benzonitrile], the IC50 in test [1] (setting [4]) was < 10 nM; in test [2] (setting [5]), < 5 nM; in test [3] (setting [6]), 250 to 500 nM.
Take `COc1ccc(Nc2nccc(-c3ccc(N(C)C)c(C#N)c3)n2)cc1OC` [Example 206, 5-{2-[(3,4-Dimethoxyphenyl)amino]pyrimidin-4-yl}-2-(dimethylamino) benzonitrile]: the values for the IC50 in test [1] (setting [4]), in test [2] (setting [5]) and in test [3] (setting [6]) were < 10 nM, < 5 nM and 250 to 500 nM, respectively.
As to `N#Cc1cc(-c2ccnc(Nc3cccc(CO)c3)n2)ccc1OC1CCOCC1` [compound 395, 5-(2-{[3-(hydroxymethyl)phenyl]amino}pyrimidin-4-yl)-2-(tetrahydro-2H-pyran-4-yloxy)benzonitrile], the IC50 in test [1] (setting [4]) is < 10 nM; in test [2] (setting [5]), < 5 nM; in test [3] (setting [6]), < 100 nM.
Consider `COCCNCc1ccc(Nc2nccc(-c3ccc(NC(=O)C4CC4)c(C#N)c3)n2)cc1OC` [compound 556], for which the IC50 in test [1] (setting [4]) was < 10 nM; in test [2] (setting [5]), 5 to 50 nM; in test [3] (setting [6]) it was < 100 nM.
In the case of `CCN(CC)CCOCCOc1cc(Nc2nccc(-c3ccc(OC4CCOCC4)c(C#N)c3)n2)ccc1OC` [compound 531, 5-{2-[(3-{2-[2-(diethylamino)ethoxy]ethoxy}-4-methoxyphenyl)amino]pyrimidin-4-yl}-2-(tetrahydro-2H-pyran-4-yloxy)benzonitrile], the IC50 in test [1] (setting [4]) is < 10 nM; in test [2] (setting [5]), < 5 nM; in test [3] (setting [6]), < 100 nM.
